{"source": "paper PMC10759609", "about": "“A novel PDPN antagonist peptide CY12-RP2 inhibits melanoma growth via Wnt/β-catenin and modulates the immune cells” (Journal of Experimental & Clinical Cancer Research : CR, 2024)", "key": {"[1]": {"test_system": "PBMC", "test": "PBMC cytokines by ELISA", "format": "cell-based, healthy donor", "settings": "50 µM, 48 h", "experimental": "PBMCs (Shenzhen People's Hospital. Shenzhen, China)) from a healthy donor were isolated using a density gradient centrifugation procedure. Firstly, the immune cell proportions analysis of PBMCs was measured using flow cytometry. We then investigated the effect of CY12-RP2 on the cytokines in PBMCs using ELISA assays. Briefly, PBMCs (5 × 10^5 cells/well) were cultured in 24-well plates with RPMI1640 containing 10% FBS for 24 h, and the cells were stimulated with CY12-RP2 (50 µM) for 48 h. Afterward, supernatants were collected for subsequent assays. […] The experimental results were then observed by crystal violet staining after 48 h. The levels of major inflammatory cytokines, including TNF-α, IL-1β, IL-2, TGF-β, IFN-γ, and IL-10, were measured using an ELISA kit (Shenzhen Ziker Biological Technology, Shenzen, China). Briefly, culture supernatants of cells and serum of pulmonary metastasis mouse model were respectively collected and added to an antibody pre-coated 96-well plates, and then followed up according to the manufacturer's instructions."}, "[2]": {"test_system": "A375 cell spheroids (caspase3)", "test": "Caspase3 immunofluorescence in 3D spheroids", "format": "cell-based", "settings": "3D melanoma cell spheroids (A375 in Fig. S3G legend), 72 h", "experimental": "Prepared melanoma cells spheroids were plated in 48-well plates. Following incubation for 3 days, the spheroids were exposed to different concentrations (0, 50, 100 and 200 μM) of CY12-RP2, and changes in spheroid diameter were detected after 5 days of treatment. Additionally, melanoma cell spheroids were treated with various concentrations of CY12-RP2 as described previously, and after 72 h, the spheroids were stained for immunofluorescence with caspase 3 primary antibody. The specific experimental procedures refer to the following immunofluorescence analysis. Additionally, we co-cultured peptide-stimulated PBMC with spheroids to determine the tumor-killing ability of activated PBMC.\nTranswell assays were performed to quantify the modulatory effects of SKL2001 and IWR1 (C). Statistical analysis was performed to evaluate the invasion of cells (D). The power field scale bar, 100 μm. (E) Western blot assays were also performed on EMT-related proteins to identify the effects of SKL2001 and IWR1. […]\n(A) Cell viability of melanoma cell lines (A375, A875) treated with 6 peptides except CY12-RP2 at various concentrations for 48 h. […] (C) SPR assay was performed to quantify […]\nmelanoma cell lines (A375, A875). […] (G) Immunofluorescence staining was performed to measure the caspase3 fluorescence intensity of A375 cell spheroids after treating with CY12-RP2. […]"}, "[3]": {"test_system": "A375 melanoma xenograft", "test": "A375 subcutaneous xenograft, BALB/c nude mice", "format": "in vivo", "settings": "tail vein, every two days for 15 days", "experimental": "Tumorigenesis assays were conducted in vivo using BALB/c nude mice and BALB/c mice from Guangdong Medical Laboratory Animal Center. The animal study was reviewed and approved by the Administrative Committee on Animal Research of Shenzhen International Graduate School, Tsinghua University (Ethical Development No. 16, 10 November 2021). Samples with 5 × 10^5 A375 or B16F10-Luc melanoma cells were diluted in 100 μL PBS and injected subcutaneously into 6- to 8-week-old female BALB/c nude mice or BALB/c mice. 5 days later, the mice were treated with CY12-RP2 by tail vein administration at various doses (25 mg/kg and 100 mg/kg) every two days. The tumor volume and body weight were measured every 2 days, with the calculation of the tumor volume under the assumption of an ellipsoidal tumor as: tumor volume = length × width^2/2. Tumors from BALB/c nude mice were collected and photographed on day 21, while tumors from the allograft mouse model were measured using bioluminescence imaging. The blood collected from the eyes of BALB/c nude mice were stored at 4 °C for 24 h and then centrifuged for 15 min under the indicated conditions (4 °C, 3000 rpm). The supernatant was collected and assayed for drug toxicity using kits, including AST, ALT, TG, and γ-GT. […]"}, "[4]": {"test_system": "cytokines in mouse plasma", "test": "Plasma cytokines in lung metastasis model (ELISA)", "format": "in vivo, BALB/c mice", "settings": "lung metastases model, vs control", "experimental": "The levels of major inflammatory cytokines, including TNF-α, IL-1β, IL-2, TGF-β, IFN-γ, and IL-10, were measured using an ELISA kit (Shenzhen Ziker Biological Technology, Shenzen, China). Briefly, culture supernatants of cells and serum of pulmonary metastasis mouse model were respectively collected and added to an antibody pre-coated 96-well plates, and then followed up according to the manufacturer's instructions.\nFor pulmonary metastasis assays, 6- to 8-week-old female BALB/c mice were administered with 5 × 10^5 B16F10-Luc cells via tail vein to establish an experimental pulmonary metastasis model of melanoma. CY12-RP2 was administered to the mice intravenously at high and low doses (25 mg/kg and 100 mg/kg) every two days, and the mice were sacrificed after 15 days of treatment. Pulmonary metastases were evaluated using bioluminescence imaging on the 2nd, 5th, 10th, 15th and 20th day after B16F10-Luc cells injection. Subsequently, the BALB/c mice were sacrificed, and the organs including the heart, liver, spleen, lung, and kidney were collected and imaged for evaluation of micrometastases. The xenografts and organs were kept in a 4% paraformaldehyde solution for subsequent histological assays."}}, "note": "Peptide text beside a SMILES is read from it."}
{"smiles": "CC(C)C[C@H](NC(=O)[C@H](Cc1ccc(O)cc1)NC(=O)[C@@H](N)[C@@H](C)O)C(=O)N[C@@H](CS)C(=O)N[C@H](C(=O)N[C@@H](C)C(=O)N[C@@H](CS)C(=O)N[C@@H](CC(=O)O)C(=O)N[C@@H](Cc1ccc(O)cc1)C(=O)N[C@H](C(=O)N[C@@H](Cc1c[nH]cn1)C(=O)N[C@@H](Cc1c[nH]cn1)C(=O)O)[C@@H](C)O)[C@@H](C)O", "note": "[CY12-RP2] (H-TYLCTACDYTHH-OH; N-terminus and C-terminus assumed)", "values": [{"measurement": "IFN-γ level in PBMC supernatant", "setting": "[1]", "result": "increased"}, {"measurement": "IL-1β level in PBMC supernatant", "setting": "[1]", "result": "increased"}, {"measurement": "IL-10 level in PBMC supernatant", "setting": "[1]", "result": "decreased"}, {"measurement": "TGF-β level in PBMC supernatant", "setting": "[1]", "result": "decreased"}, {"measurement": "TNF-α level in PBMC supernatant", "setting": "[1]", "result": "increased"}, {"measurement": "level of Caspase3", "setting": "[2]", "result": "significantly increased"}, {"measurement": "tumor growth", "setting": "[3]; 25 mg/kg and 100 mg/kg, especially 100 mg/kg", "result": "significantly inhibited the tumor growth"}, {"measurement": "mean body weight", "setting": "[3]; nude mice, 25 and 100 mg/kg", "result": "no significant change"}, {"measurement": "plasma IFN-γ", "setting": "[4]", "result": "significantly elevated"}, {"measurement": "plasma IL-1β", "setting": "[4]", "result": "significantly elevated"}, {"measurement": "plasma IL-2", "setting": "[4]", "result": "reduced"}, {"measurement": "plasma IL-10", "setting": "[4]", "result": "reduced"}, {"measurement": "plasma TGF-β", "setting": "[4]", "result": "reduced"}, {"measurement": "plasma TNF-α", "setting": "[4]", "result": "significantly elevated"}]}
